According to PubChem BioAssay (NCI):
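Protocol summary: plate cells (96-well), add compound at 5 concentrations, incubate 48 h, interpolate endpoints linearly. GI50: concentration for 50% inhibition of growth. TGI: total growth inhibition.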

Columns and labels:
Experiment in all cases: DTP human tumour cell line panel, 48 h
[1] = tested on: 786-0 renal
[2] = tested on: A498 renal
[3] = tested on: A549 NSCLC
[4] = tested on: ACHN renal
[5] = tested on: BT-549 breast
[6] = tested on: CAKI-1 renal
[7] = tested on: CCRF-CEM leukemia
[8] = tested on: COLO 205 colon
[9] = tested on: DU-145 prostate
[10] = tested on: EKVX NSCLC
[11] = tested on: HCC-2998 colon
[12] = tested on: HCT-116 colon
[13] = tested on: HCT-15 colon
[14] = tested on: HL-60(TB) leukemia
[15] = tested on: HOP-62 NSCLC
[16] = tested on: HOP-92 NSCLC
[17] = tested on: HS 578T breast
[18] = tested on: HT29 colon
[19] = tested on: IGROV1 ovarian
[20] = tested on: K-562 leukemia
[21] = tested on: KM12 colon
[22] = tested on: LOX IMVI melanoma
[23] = tested on: M14 melanoma
[24] = tested on: MALME-3M melanoma
[25] = tested on: MCF7 breast
[26] = tested on: MDA-MB-231 breast
[27] = tested on: MDA-MB-435
[28] = tested on: MDA-MB-468 breast
[29] = tested on: MOLT-4 leukemia
[30] = tested on: NCI-H226 lung
[31] = tested on: NCI-H23 lung
[32] = tested on: NCI-H460 lung
[33] = tested on: NCI-H522 lung
[34] = tested on: NCI/ADR-RES ovarian
[35] = tested on: OVCAR-3 ovarian
[36] = tested on: OVCAR-4 ovarian
[37] = tested on: OVCAR-5 ovarian
[38] = tested on: OVCAR-8 ovarian
[39] = tested on: PC-3 prostate
[40] = tested on: RPMI-8226 leukemia
[41] = tested on: RXF 393 renal
[42] = tested on: SF-268 CNS
[43] = tested on: SF-295 CNS
[44] = tested on: SF-539 CNS
[45] = tested on: SK-MEL-2 melanoma
[46] = tested on: SK-MEL-28 melanoma
[47] = tested on: SK-MEL-5 melanoma
[48] = tested on: SK-OV-3 ovarian
[49] = tested on: SN12C renal
[50] = tested on: SNB-19 CNS
[51] = tested on: SNB-75 CNS
[52] = tested on: SR leukemia
[53] = tested on: SW-620 colon
[54] = tested on: T-47D breast
[55] = tested on: TK-10 renal
[56] = tested on: U251 CNS
[57] = tested on: UACC-257 melanoma
[58] = tested on: UACC-62 melanoma
[59] = tested on: UO-31 renal

**Q.** Which results are given for `CC[C@]12C=CCN3CC[C@]4(C(=C(C(=O)OC)C1)Nc1cc(OC)c([C@@H]5[C@H]6O[C@H]6[C@@]6(CC)CC(C(=O)OC)=C7Nc8cc(O)ccc8[C@@]78CCN5[C@@H]68)cc14)[C@@H]32`?
**A.** GI50 [1]: 5.71 µM; TGI [1]: 49.4 µM; GI50 [2]: 13.1 µM; TGI [2]: 40 µM; GI50 [3]: 4.56 µM; TGI [3]: > 56.5 µM; GI50 [4]: 6.67 µM; TGI [4]: 20.3 µM; GI50 [5]: 6.27 µM; TGI [5]: 18.9 µM; GI50 [6]: 4 µM; TGI [6]: 50.1 µM; GI50 [7]: 2.19 µM; TGI [7]: > 56.5 µM; GI50 [8]: 10.4 µM; TGI [8]: 24 µM; GI50 [9]: 12.3 µM; TGI [9]: 50 µM; GI50 [10]: 3.7 µM; TGI [10]: 31.7 µM; GI50 [11]: 3.32 µM; TGI [11]: 10.9 µM; GI50 [12]: 2.17 µM; TGI [12]: 12.6 µM; GI50 [13]: 2.91 µM; TGI [13]: 11.4 µM; GI50 [14]: 1.78 µM; TGI [14]: 8.34 µM; GI50 [15]: 12.9 µM; TGI [15]: 27.5 µM; GI50 [16]: 5.99 µM; TGI [16]: 14.3 µM; GI50 [17]: 11.7 µM; TGI [17]: > 56.5 µM; GI50 [18]: 6.12 µM; TGI [18]: 18.9 µM; GI50 [19]: 8.95 µM; TGI [19]: 25 µM; GI50 [20]: 1.91 µM; TGI [20]: 12.4 µM; GI50 [21]: 3.27 µM; TGI [21]: 14.9 µM; GI50 [22]: 3.11 µM; TGI [22]: 10.5 µM; GI50 [23]: 2.91 µM; TGI [23]: 16.3 µM; GI50 [24]: 5.97 µM; TGI [24]: 12.8 µM; GI50 [25]: 1.73 µM; TGI [25]: 11.6 µM; GI50 [26]: 6.8 µM; TGI [26]: 13.9 µM; GI50 [27]: 3.71 µM; TGI [27]: 14.2 µM; GI50 [28]: 1.11 µM; TGI [28]: 7.28 µM; GI50 [29]: 1.34 µM; TGI [29]: 6.82 µM; GI50 [30]: 5.95 µM; TGI [30]: 15 µM; GI50 [31]: 6.13 µM; TGI [31]: 18.8 µM; GI50 [32]: 2.87 µM; TGI [32]: 10.9 µM; GI50 [33]: 2.41 µM; TGI [33]: 11.6 µM; GI50 [34]: 7.86 µM; TGI [34]: 26.8 µM; GI50 [35]: 3.92 µM; TGI [35]: 12.1 µM; GI50 [36]: 5.68 µM; TGI [36]: > 56.5 µM; GI50 [37]: 10.5 µM; TGI [37]: 27.5 µM; GI50 [38]: 12.4 µM; TGI [38]: > 56.5 µM; GI50 [39]: 1.99 µM; TGI [39]: 16.7 µM; GI50 [40]: 1.53 µM; TGI [40]: > 56.5 µM; GI50 [41]: 2.6 µM; TGI [41]: 12.5 µM; GI50 [42]: 5.6 µM; TGI [42]: 43.5 µM; GI50 [43]: 5 µM; TGI [43]: 15.3 µM; GI50 [44]: 10.8 µM; TGI [44]: 27.4 µM; GI50 [45]: 8.75 µM; TGI [45]: 19.8 µM; GI50 [46]: 7.57 µM; TGI [46]: 24.5 µM; GI50 [47]: 3.66 µM; TGI [47]: 11.4 µM; GI50 [48]: 17.7 µM; TGI [48]: > 56.5 µM; GI50 [49]: 6.01 µM; TGI [49]: 15.3 µM; GI50 [50]: 14.6 µM; TGI [50]: > 56.5 µM; GI50 [51]: 2.95 µM; TGI [51]: > 56.5 µM; GI50 [52]: 2.18 µM; TGI [52]: 21.7 µM; GI50 [53]: 5.67 µM; TGI [53]: 14.6 µM; GI50 [54]: 1.9 µM; TGI [54]: 23.8 µM; GI50 [55]: 21.2 µM; TGI [55]: > 56.5 µM; GI50 [56]: 4.33 µM; TGI [56]: 14.6 µM; GI50 [57]: 4.3 µM; TGI [57]: 15.5 µM; GI50 [58]: 3.27 µM; TGI [58]: 11.6 µM; GI50 [59]: 4.31 µM; TGI [59]: 13.8 µM

**Q.** Which results are given for `C/C(=N\Nc1ccc(S(N)(=O)=O)cc1)c1ccc(N=Nc2c(Nc3ccccc3)[nH][nH]c2=O)cc1`?
**A.** GI50 [1]: 2.14 µM; TGI [1]: 6.27 µM; GI50 [2]: 11.4 µM; TGI [2]: 32.8 µM; GI50 [3]: 19.4 µM; TGI [3]: > 100 µM; GI50 [4]: 5.9 µM; TGI [4]: 18.5 µM; GI50 [5]: 2.83 µM; TGI [5]: 9.66 µM; GI50 [6]: 12.5 µM; TGI [6]: 25.1 µM; GI50 [7]: 2.63 µM; TGI [7]: 8.92 µM; GI50 [8]: 3.28 µM; TGI [8]: 12 µM; GI50 [9]: 3.21 µM; TGI [9]: 10.4 µM; GI50 [10]: 5.39 µM; TGI [10]: 26.9 µM; GI50 [11]: 2.29 µM; TGI [11]: 6.08 µM; GI50 [12]: 3.04 µM; TGI [12]: 10.3 µM; GI50 [13]: 5.29 µM; TGI [13]: 18.4 µM; GI50 [14]: 2.86 µM; TGI [14]: 17.1 µM; GI50 [15]: 2.05 µM; TGI [15]: 6 µM; GI50 [16]: 1.3 µM; TGI [16]: 6.55 µM; GI50 [17]: 3.31 µM; TGI [17]: 19.4 µM; GI50 [18]: 3.58 µM; TGI [18]: 11.6 µM; GI50 [19]: 4.5 µM; TGI [19]: 17.6 µM; GI50 [20]: 2.29 µM; TGI [20]: 6.37 µM; GI50 [21]: 2.66 µM; TGI [21]: 8.95 µM; GI50 [22]: 2.13 µM; TGI [22]: 4.33 µM; GI50 [23]: 2.83 µM; TGI [23]: 7.55 µM; GI50 [24]: 1.98 µM; TGI [24]: 3.85 µM; GI50 [25]: 2.4 µM; TGI [25]: 7.34 µM; GI50 [26]: 2 µM; TGI [26]: 4.07 µM; GI50 [27]: 2.07 µM; TGI [27]: 5.03 µM; GI50 [28]: 1.4 µM; TGI [28]: 3 µM; GI50 [29]: 1.64 µM; TGI [29]: 5.24 µM; GI50 [30]: 3.31 µM; TGI [30]: 12.3 µM; GI50 [31]: 2.54 µM; TGI [31]: 6.53 µM; GI50 [32]: 3.21 µM; TGI [32]: 11.1 µM; GI50 [33]: 2.17 µM; TGI [33]: 5.25 µM; GI50 [34]: > 100 µM; TGI [34]: > 100 µM; GI50 [35]: 1.87 µM; TGI [35]: 4.54 µM; GI50 [36]: 2.84 µM; TGI [36]: 9.26 µM; GI50 [37]: 11 µM; TGI [37]: 24.4 µM; GI50 [38]: 2.59 µM; TGI [38]: 7.81 µM; GI50 [39]: 3.06 µM; TGI [39]: 11.3 µM; GI50 [40]: 3.36 µM; TGI [40]: 28.2 µM; GI50 [41]: 1.1 µM; TGI [41]: 3.88 µM; GI50 [42]: 2.22 µM; TGI [42]: 6.23 µM; GI50 [43]: 3.67 µM; TGI [43]: 13.6 µM; GI50 [44]: 1.58 µM; TGI [44]: 3.68 µM; GI50 [45]: 2.11 µM; TGI [45]: 4.38 µM; GI50 [46]: 1.91 µM; TGI [46]: 3.65 µM; GI50 [47]: 3.32 µM; TGI [47]: 12.8 µM; GI50 [48]: 2.34 µM; TGI [48]: 6.47 µM; GI50 [49]: 2.38 µM; TGI [49]: 6.58 µM; GI50 [50]: 2.59 µM; TGI [50]: 8.76 µM; GI50 [52]: 1.74 µM; TGI [52]: 5.33 µM; GI50 [53]: 3.18 µM; TGI [53]: 12.6 µM; GI50 [54]: 2.22 µM; TGI [54]: 5.92 µM; GI50 [55]: 18.6 µM; TGI [55]: 56.8 µM; GI50 [56]: 1.88 µM; TGI [56]: 3.76 µM; GI50 [57]: 3.97 µM; TGI [57]: 16.7 µM; GI50 [58]: 1.96 µM; TGI [58]: 4.34 µM; GI50 [59]: 19.4 µM; TGI [59]: > 100 µM
